Patent US20200147243A1, “LIGAND COMPOUND OF ALPHA7 NICOTINIC ACETYLCHOLINE RECEPTOR AND APPLICATION THEREOF” (BEIJING NORMAL UNIVERSITY, priority 2017, published 2020)
Where “and” joins values, the source holds several entries; their conditions need not be identical. Equal values may be shown once.

Columns and labels:
[1] = In vitro stability experiment in fetal bovine serum and normal saline; type: in vitro ADME
Experimental: The in vitro stability of the radioligand is of great importance for its further in vivo studies. Generally, the in vitro stability study is carried out in normal saline and animal serum. A specific method was as follows: respectively incubating 10 μCi of HPLC-purified radioligand [^18F] II-15 and 100 μL of fetal bovine serum at 37° C. for 1 h and 2 h, adding 200 μL of acetonitrile thereto after finishing the incubation to fully precipitate proteins, then centrifuging at […] for 5 min (7000 rpm), collecting supernatant, filtering the supernatant with filter membrane, and then performing HPLC analysis on 100 μL of the filtered supernatant; incubating 10 μCi of HPLC-purified radioligand [^18F] II-15 with 100 μL of normal saline at room temperature for 1 h and 2 h, respectively, and then directly analyzing by HPLC.

[2] = Experiment of brain region distribution; conditions: for Absorption, brain residual / Absorption, cerebellum / Absorption, corpus striatum / Absorption, cortex / Absorption, hippocampus / Absorption, superior and inferior colliculus / Absorption, thalamus: tail vein, female Kunming mice; for Tissue/cerebellum Ratio, corpus striatum / Tissue/cerebellum Ratio, cortex / Tissue/cerebellum Ratio, hippocampus / Tissue/cerebellum Ratio, superior and inferior colliculus / Tissue/cerebellum Ratio, thalamus: mouse brain
α4β2 nAChR = target: T1, α4β2 nAChR (Mus musculus, UniProt O70174+Q9ERK7); test: Selective experiment in mouse brain, cytisine pre-injection; type: in vivo, Kunming mice; conditions: 1 mg/kg cytisine s.c. 5 min in advance, 60 min after administration
T1 construct: from tissue
T1 sequence (O70174 31-629): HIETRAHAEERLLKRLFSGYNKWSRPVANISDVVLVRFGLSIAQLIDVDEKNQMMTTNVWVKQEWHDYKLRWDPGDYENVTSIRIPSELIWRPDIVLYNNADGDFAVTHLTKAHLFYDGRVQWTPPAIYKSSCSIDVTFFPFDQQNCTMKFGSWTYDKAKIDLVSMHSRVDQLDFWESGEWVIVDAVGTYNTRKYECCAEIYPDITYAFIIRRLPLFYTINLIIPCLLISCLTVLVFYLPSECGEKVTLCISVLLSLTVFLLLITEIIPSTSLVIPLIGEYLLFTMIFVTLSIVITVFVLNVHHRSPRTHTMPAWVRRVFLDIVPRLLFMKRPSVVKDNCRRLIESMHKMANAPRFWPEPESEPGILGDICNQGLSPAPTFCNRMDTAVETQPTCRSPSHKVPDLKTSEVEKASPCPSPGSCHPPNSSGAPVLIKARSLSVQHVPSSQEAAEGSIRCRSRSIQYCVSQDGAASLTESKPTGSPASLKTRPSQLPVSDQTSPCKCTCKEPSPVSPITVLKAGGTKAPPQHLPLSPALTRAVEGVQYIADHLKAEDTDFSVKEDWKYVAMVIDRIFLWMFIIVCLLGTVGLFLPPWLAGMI
T1 sequence (Q9ERK7 26-501): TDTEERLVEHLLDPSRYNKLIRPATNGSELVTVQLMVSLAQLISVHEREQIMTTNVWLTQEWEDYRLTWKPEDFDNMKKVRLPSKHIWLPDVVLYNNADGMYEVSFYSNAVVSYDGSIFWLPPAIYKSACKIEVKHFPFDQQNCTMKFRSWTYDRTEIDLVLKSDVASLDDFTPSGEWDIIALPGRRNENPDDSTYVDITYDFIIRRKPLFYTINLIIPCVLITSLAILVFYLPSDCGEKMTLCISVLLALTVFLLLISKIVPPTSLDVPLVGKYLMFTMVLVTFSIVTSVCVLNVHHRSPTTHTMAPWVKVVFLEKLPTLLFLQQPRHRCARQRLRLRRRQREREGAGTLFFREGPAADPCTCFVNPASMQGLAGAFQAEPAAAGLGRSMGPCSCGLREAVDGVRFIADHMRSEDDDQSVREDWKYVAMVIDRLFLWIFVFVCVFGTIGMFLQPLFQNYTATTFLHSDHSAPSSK
Experimental: (§1) The selectivity of radioligand for α4β2 nAChR was explored by subcutaneously injecting 1 mg/kg of cytisine (0.1 mL, with an equal volume of normal saline and 1,2-propanediol as solvents) 5 min in advance, whereas the selectivity for the 5-hydroxytryptamine receptor was explored by subcutaneously injecting 2 mg/kg of ondanstron (0.1 mL, with saline:DMSO=5:1 (V:V) as solvents) 10 min in advance. In the experiment, two groups of mice (n=5, Kunming females, 28-30 g) were injected with 0.1 mL (60 μCi) of [^18F]

[3] = Lipid water partition coefficient (n-octanol / PBS pH 7.4); type: physicochemical; conditions: read-out: lipid water partition coefficient log P
[4] = target: T2, 5-hydroxytryptamine receptor (Mus musculus, UniProt P23979); test: Selective experiment in mouse brain, ondanstron pre-injection; type: in vivo, Kunming mice; conditions: 2 mg/kg ondanstron s.c. 10 min in advance, 60 min after administration
T2 construct: from tissue
T2 sequence (P23979 24-489): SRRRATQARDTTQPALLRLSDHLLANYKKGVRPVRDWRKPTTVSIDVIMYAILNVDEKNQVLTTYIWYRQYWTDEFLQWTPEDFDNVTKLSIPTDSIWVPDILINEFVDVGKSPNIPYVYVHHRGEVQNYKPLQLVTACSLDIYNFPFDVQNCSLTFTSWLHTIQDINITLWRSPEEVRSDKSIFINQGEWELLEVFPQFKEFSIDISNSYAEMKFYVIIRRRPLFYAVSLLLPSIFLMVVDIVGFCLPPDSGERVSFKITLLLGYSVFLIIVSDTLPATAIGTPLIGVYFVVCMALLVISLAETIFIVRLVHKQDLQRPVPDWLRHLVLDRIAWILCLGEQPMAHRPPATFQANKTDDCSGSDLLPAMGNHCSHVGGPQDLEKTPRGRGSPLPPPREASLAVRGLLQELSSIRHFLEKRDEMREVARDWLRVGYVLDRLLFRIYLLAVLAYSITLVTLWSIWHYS
Experimental: as §1

**Q.** Which results are given for O=C1c2cc(N3CCN4CCC3CC4)ccc2-c2cccc([18F])c21 [[^18F] II-15]?
**A.** radiochemical purity after incubation ([1]; fetal calf serum, 37° C., 1 h): greater than 98%; radiochemical purity after incubation ([1]; fetal calf serum, 37° C., 2 h): greater than 98%; radiochemical purity after incubation ([1]; normal saline, room temperature, 1 h): greater than 98%; radiochemical purity after incubation ([1]; normal saline, room temperature, 2 h): greater than 98%; Absorption, brain residual ([2]; 5 min): 6.03 ± 0.23 % ID/g wet weight; Absorption, brain residual ([2]; 15 min): 5.58 ± 0.50 % ID/g wet weight; Absorption, brain residual ([2]; 30 min): 5.25 ± 0.80 % ID/g wet weight; Absorption, brain residual ([2]; 60 min): 4.21 ± 0.22 % ID/g wet weight; Absorption, brain residual ([2]; 90 min): 2.32 ± 0.26 % ID/g wet weight; Absorption, cerebellum ([2]; 5 min): 5.83 ± 0.01 % ID/g wet weight; Absorption, cerebellum ([2]; 15 min): 5.10 ± 0.35 % ID/g wet weight; Absorption, cerebellum ([2]; 30 min): 4.53 ± 0.14 % ID/g wet weight; Absorption, cerebellum ([2]; 60 min): 2.69 ± 0.10 % ID/g wet weight; Absorption, cerebellum ([2]; 90 min): 1.53 ± 0.10 % ID/g wet weight; Tissue/cerebellum Ratio, corpus striatum ([2]; 5 min): 1.20; Absorption, corpus striatum ([2]; 5 min): 6.99 ± 0.31 % ID/g wet weight; Tissue/cerebellum Ratio, corpus striatum ([2]; 15 min): 1.28; Absorption, corpus striatum ([2]; 15 min): 6.55 ± 0.25 % ID/g wet weight; Tissue/cerebellum Ratio, corpus striatum ([2]; 30 min): 1.85; Absorption, corpus striatum ([2]; 30 min): 8.37±0.27 % ID/g wet weight; Tissue/cerebellum Ratio, corpus striatum ([2]; 60 min): 1.87; Absorption, corpus striatum ([2]; 60 min): 5.01 ± 0.31 % ID/g wet weight; Tissue/cerebellum Ratio, corpus striatum ([2]; 90 min): 2.9 and 2.86; Absorption, corpus striatum ([2]; 90 min): 4.37 ± 0.18 % ID/g wet weight; Tissue/cerebellum Ratio, cortex ([2]; 5 min): 1.24; Absorption, cortex ([2]; 5 min): 7.24 ± 0.33 % ID/g wet weight; Tissue/cerebellum Ratio, cortex ([2]; 15 min): 1.63; Absorption, cortex ([2]; 15 min): 8.31 ± 0.22 % ID/g wet weight; Tissue/cerebellum Ratio, cortex ([2]; 30 min): 2.07; Absorption, cortex ([2]; 30 min): 9.39±0.24 % ID/g wet weight; Tissue/cerebellum Ratio, cortex ([2]; 60 min): 2.29; Absorption, cortex ([2]; 60 min): 6.14 ± 0.34 % ID/g wet weight; Tissue/cerebellum Ratio, cortex ([2]; 90 min): 2.5 and 2.47; Absorption, cortex ([2]; 90 min): 3.77 ± 0.95 % ID/g wet weight; Tissue/cerebellum Ratio, hippocampus ([2]; 5 min): 0.99; Absorption, hippocampus ([2]; 5 min): 5.77 ± 0.17 % ID/g wet weight; Tissue/cerebellum Ratio, hippocampus ([2]; 15 min): 1.20; Absorption, hippocampus ([2]; 15 min): 6.12 ± 0.40 % ID/g wet weight; Tissue/cerebellum Ratio, hippocampus ([2]; 30 min): 1.39; Absorption, hippocampus ([2]; 30 min): 6.31±0.82 % ID/g wet weight; Tissue/cerebellum Ratio, hippocampus ([2]; 60 min): 2.36; Absorption, hippocampus ([2]; 60 min): 6.34 ± 0.72 % ID/g wet weight; Tissue/cerebellum Ratio, hippocampus ([2]; 90 min): 3.6 and 3.63; Absorption, hippocampus ([2]; 90 min): 5.54 ± 0.64 % ID/g wet weight; Tissue/cerebellum Ratio, superior and inferior colliculus ([2]; 5 min): 1.08; Absorption, superior and inferior colliculus ([2]; 5 min): 6.32 ± 0.67 % ID/g wet weight; Tissue/cerebellum Ratio, superior and inferior colliculus ([2]; 15 min): 1.28; Absorption, superior and inferior colliculus ([2]; 15 min): 6.53 ± 0.58 % ID/g wet weight; Tissue/cerebellum Ratio, superior and inferior colliculus ([2]; 30 min): 1.31; Absorption, superior and inferior colliculus ([2]; 30 min): 5.93 ± 0.52 % ID/g wet weight; Tissue/cerebellum Ratio, superior and inferior colliculus ([2]; 60 min): 1.45; Absorption, superior and inferior colliculus ([2]; 60 min): 3.90 ± 0.36 % ID/g wet weight; Tissue/cerebellum Ratio, superior and inferior colliculus ([2]; 90 min): 1.86; Absorption, superior and inferior colliculus ([2]; 90 min): 2.85 ± 0.10 % ID/g wet weight; Tissue/cerebellum Ratio, thalamus ([2]; 5 min): 0.98; Absorption, thalamus ([2]; 5 min): 5.74 ± 0.69 % ID/g wet weight; Tissue/cerebellum Ratio, thalamus ([2]; 15 min): 1.11; Absorption, thalamus ([2]; 15 min): 5.66 ± 0.34 % ID/g wet weight; Tissue/cerebellum Ratio, thalamus ([2]; 30 min): 1.28; Absorption, thalamus ([2]; 30 min): 5.80 ± 0.47 % ID/g wet weight; Tissue/cerebellum Ratio, thalamus ([2]; 60 min): 1.82; Absorption, thalamus ([2]; 60 min): 4.89 ± 0.04 % ID/g wet weight; Tissue/cerebellum Ratio, thalamus ([2]; 90 min): 2.10; Absorption, thalamus ([2]; 90 min): 3.19 ± 0.26 % ID/g wet weight; difference in brain uptake between experimental group and control group (α4β2 nAChR): no significant difference; logP [3]: 1.64 ± 0.12; difference in brain uptake between experimental group and control group [4]: no significant difference
